Reference: the supplement of paper PMC10307832

Key:
Assay in all cases: relative viability (nuclei count vs DMSO), 5 days (fraction); higher = more cells survive
[1] = compound: Nc1nc2[nH]cc(CCc3ccc(C(=O)N[C@@H](CCC(=O)O)C(=O)O)cc3)c2c(=O)[nH]1 [Pemetrexed] + CCNC(=O)c1noc(-c2cc(C(C)C)c(O)cc2O)c1-c1ccc(CN2CCOCC2)cc1 [Luminespib] (partner 0.01 µM)
How it was run: (§1)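 For relative viability, nuclei counts in treated wells were divided by those in vehicle wells. Lung cancer cell lines had been pin-tool dosed in 1536-well plates the day after seeding and cultured for 5 days, then fixed and stained in one step (final 0.05% Triton X-100, 1% formaldehyde, 1 ug/ml Hoechst) and imaged at 4×. Doses were one drug alone or a fixed anchor-drug dose plus five library-drug doses (not always all listed) in √10 steps, and values are duplicate-plate medians.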

[2] = compound: CC[C@H](Nc1ncnc2[nH]cnc12)c1nc2cccc(F)c2c(=O)n1-c1ccccc1 [Idelalisib] + O=C(CCCCCCC(=O)Nc1ccccc1)NO [Vorinostat] (partner 1 µM)
How it was run: as §1

[3] = compound: CC[C@H](Nc1ncnc2[nH]cnc12)c1nc2cccc(F)c2c(=O)n1-c1ccccc1 [Idelalisib] + COc1cccc2cc(-c3nc([C@H]4CC[C@H](C(=O)O)CC4)n4ncnc(N)c34)[nH]c12 [OSI-027] (partner 0.5 µM)
How it was run: as §1

[4] = compound: Nc1nc2[nH]cc(CCc3ccc(C(=O)N[C@@H](CCC(=O)O)C(=O)O)cc3)c2c(=O)[nH]1 [Pemetrexed] + O=C(c1cc(Cc2n[nH]c(=O)c3ccccc23)ccc1F)N1CCN(C(=O)C2CC2)CC1 [Olaparib] (partner 8 µM)
How it was run: as §1

| Cell Line | relative viability ([1]; first compound 0.002 µM) | relative viability ([1]; first compound 0.006325 µM) | relative viability ([1]; first compound 0.02 µM) | relative viability ([1]; first compound 0.06325 µM) | relative viability ([1]; first compound 0.2 µM) | relative viability ([2]; first compound 0.04 µM) | relative viability ([2]; first compound 0.1265 µM) | relative viability ([2]; first compound 0.4 µM) | relative viability ([2]; first compound 1.265 µM) | relative viability ([2]; first compound 4 µM) | relative viability ([3]; first compound 0.04 µM) | relative viability ([3]; first compound 0.1265 µM) | relative viability ([3]; first compound 0.4 µM) | relative viability ([3]; first compound 1.265 µM) | relative viability ([3]; first compound 4 µM) | relative viability ([4]; first compound 0.002 µM) | relative viability ([4]; first compound 0.006325 µM) | relative viability ([4]; first compound 0.02 µM) | relative viability ([4]; first compound 0.06325 µM) | relative viability ([4]; first compound 0.2 µM) |
| --- | --- | --- | --- | --- | --- | --- | --- | --- | --- | --- | --- | --- | --- | --- | --- | --- | --- | --- | --- | --- |
| ChaGo-K-1 | 0.582 | 0.577 | 0.608 | 0.47 | 0.239 | 0.832 | 0.702 | 0.695 | 0.82 | 0.732 | 0.618 | 0.55 | 0.456 | 0.576 | 0.513 | 0.483 | 0.423 | 0.464 | 0.383 | 0.259 |
| NCI-H441 | 0.35 | 0.328 | 0.33 | 0.393 | 0.328 | 0.851 | 0.908 |  | 0.737 | 0.758 | 0.788 | 0.561 | 0.397 | 0.526 | 0.616 | 0.458 | 0.534 | 0.56 | 0.567 | 0.252 |
| NCI-H2170 | 0.684 | 0.861 | 0.709 | 0.749 | 0.583 | 0.732 | 0.805 | 0.761 | 0.716 | 0.669 | 0.722 | 0.793 | 0.637 | 0.609 | 0.649 | 0.573 | 0.62 | 0.652 | 0.633 | 0.555 |
| PC-14 | 0.15 | 0.133 | 0.151 | 0.136 | 0.137 | 0.901 | 0.709 | 0.633 | 0.363 | 0.68 | 0.946 | 1.05 | 0.721 | 0.338 | 0.754 | 0.272 | 0.151 | 0.274 | 0.127 | 0.0867 |
| NCI-H2009 | 0.94 | 0.995 | 1.04 | 0.991 | 1.03 | 0.751 | 0.751 | 0.663 | 0.688 | 0.72 | 0.642 | 0.646 | 0.515 | 0.509 | 0.557 | 0.648 | 0.689 | 0.714 | 0.651 | 0.661 |
| NCI-H1395 | 0.8 | 0.718 | 0.678 | 0.528 | 0.758 | 0.841 | 0.813 | 0.692 | 0.674 | 0.692 | 0.713 | 0.639 | 0.621 | 0.561 | 0.454 | 0.427 | 0.421 | 0.5 | 0.41 | 0.426 |
| NCI-H1437 |  | 1.06 | 0.997 | 0.856 | 0.487 | 0.902 | 0.932 | 0.895 | 0.964 | 0.903 | 0.861 | 0.864 | 0.795 | 1.07 | 0.967 | 0.619 | 0.625 | 0.656 | 0.54 | 0.385 |
| NCI-H647 | 0.21 | 0.189 | 0.257 | 0.17 | 0.131 | 0.686 | 0.435 | 0.546 | 0.247 | 0.141 | 0.758 | 0.64 |  | 0.527 | 0.423 | 0.585 | 0.67 | 0.765 | 0.465 | 0.163 |
